In brackets after ≈: the same amount, converted by molar mass.
Assays:
HL-60 = assay: Cytotoxicity against human HL60 cells after 24 hrs; format: functional, cell-based
MCF7 = assay: Cytotoxicity against human MCF7 cells after 24 hrs; format: functional, cell-based
CHO = assay: Cytotoxicity against CHO cells after 24 hrs; format: cell-based, Cricetulus griseus
A-375 = assay: Cytotoxicity against human A375 cells after 24 hrs; format: functional, cell-based
A549 = assay: Cytotoxicity against human A549 cells after 24 hrs; format: functional, cell-based
[1] = Homo sapiens, HL-60, 24 h, read-out: IC50
[2] = Homo sapiens, MCF7, 24 h, read-out: IC50
[3] = Cricetulus griseus, CHO, 24 h, read-out: IC50
[4] = Homo sapiens, A-375, 24 h, read-out: IC50
[5] = Homo sapiens, A549, 24 h, read-out: IC50

Row | SMILES | IC50 (HL-60; [1]) [µg/mL] | IC50 (MCF7; [2]) [µg/mL] | IC50 (CHO; [3]) [µg/mL] | IC50 (A-375; [4]) [µg/mL] | IC50 (HL-60; hl-60) [µg/mL] | IC50 (MCF7; mcf7) [µg/mL] | IC50 (A549; [5]) [µg/mL] | IC50 (CHO; cho) [µg/mL] | IC50 (A-375; a-375) [µg/mL] | IC50 (A549; a549) [µg/mL]
1 | CC1=CC(=O)[C@H]2C(C)(C)CCC[C@]2(C)[C@H]1/C=C/C1=CC2OC1C1C(=O)c3ccccc3C(=O)C21 (stereo in doubt; 3k) | 13.7 (≈ 30 µM) | 15 (≈ 32.8 µM) | 7.94 (≈ 17.4 µM) | 18.7 (≈ 41 µM) | – | – | – | – | – | –
2 | CC1=CC(=O)[C@H]2C(C)(C)CCC[C@]2(C)[C@H]1C=O | 39.7 (≈ 169 µM) | 38.1 (≈ 163 µM) | 34.9 (≈ 149 µM) | 35.1 (≈ 150 µM) | – | – | – | – | – | –
3 | CC1=CC(=O)[C@H]2C(C)(C)CCC[C@]2(C)[C@H]1/C=C/C1=CC2OC1C1CNCC21 (stereo in doubt; 3p) | – | – | – | – | 43.18 (≈ 117 µM) | 31.98 (≈ 87 µM) | – | – | – | –
4 | CC1=CC(=O)[C@H]2C(C)(C)CCC[C@]2(C)[C@H]1/C=C/C1=CC2OC1C1C(=O)c3ccccc3C(=O)C21 (stereo in doubt; 3l) | – | – | – | – | 13.88 (≈ 30.4 µM) | 14.72 (≈ 32.2 µM) | 34.5 (≈ 75.5 µM) | 7.91 (≈ 17.3 µM) | 18.64 (≈ 40.8 µM) | –
5 | CC1=CC(=O)[C@H]2C(C)(C)CCC[C@]2(C)[C@H]1[C@@H]1O[C@@H]1c1ccoc1 | 19.4 (≈ 61.8 µM) | 20.1 (≈ 63.9 µM) | 9.61 (≈ 30.6 µM) | 26.1 (≈ 83.1 µM) | – | – | 31.1 (≈ 99.1 µM) | – | – | –
6 | CC1=CC(=O)[C@H]2C(C)(C)CCC[C@]2(C)[C@H]1/C=C/c1ccoc1 [HEDYCHENONE] | 17.7 (≈ 59.2 µM) | 19.4 (≈ 65 µM) | 8.2 (≈ 27.5 µM) | 21.1 (≈ 70.8 µM) | – | – | 33.1 (≈ 111 µM) | – | – | –
7 | CC1CC(=O)[C@H]2C(C)(C)CCC[C@]2(C)[C@H]1CCc1ccoc1 (stereo partly drawn) | > 100 | > 100 | – | > 100 | – | – | – | – | – | –
8 | CC1=CC(=O)[C@H]2C(C)(C)CCC[C@]2(C)[C@H]1/C=C/C1=C[C@H]2O[C@H]1[C@@H]1C(=O)C=CC(=O)[C@@H]12 | 14.7 (≈ 36.2 µM) | 15.4 (≈ 37.9 µM) | 8.28 (≈ 20.4 µM) | 20.1 (≈ 49.5 µM) | – | – | – | – | – | –
9 | CC1=CC(=O)[C@H]2C(C)(C)CCC[C@]2(C)[C@H]1/C=C/C1=CC2OC1C1CCOC21 (stereo partly drawn) | 38 (≈ 103 µM) | 33.9 (≈ 91.9 µM) | – | 43.1 (≈ 117 µM) | – | – | – | – | – | –
10 | COC1CCC2C3C=C(/C=C/[C@H]4C(C)=CC(=O)[C@H]5C(C)(C)CCC[C@]45C)C(O3)C2O1 (stereo in doubt; 3i) | – | – | – | – | 28.41 (≈ 68.9 µM) | 29.3 (≈ 71 µM) | – | 13.91 (≈ 33.7 µM) | 31.12 (≈ 75.4 µM) | 47.71 (≈ 116 µM)
11 | CC1(C)CCC[C@]2(C)[C@@H](/C=C/c3ccoc3)C(CO)=CC(=O)[C@@H]12 [YUNNACORONARIN D] | 26.2 (≈ 83.3 µM) | 34.3 (≈ 109 µM) | 39 (≈ 124 µM) | 40 (≈ 127 µM) | – | – | 50.1 (≈ 159 µM) | – | – | –
12 | COC1CCC2C3C=C(/C=C/[C@H]4C(C)=CC(=O)[C@H]5C(C)(C)CCC[C@]45C)C(O3)C2O1 (stereo in doubt; 3g) | 27.7 (≈ 67.1 µM) | 28.1 (≈ 68.1 µM) | 13.1 (≈ 31.7 µM) | 30.2 (≈ 73.2 µM) | – | – | 43.2 (≈ 105 µM) | – | – | –
13 | COC1CCC2C3OC(C=C3/C=C/[C@H]3C(C)=CC(=O)[C@H]4C(C)(C)CCC[C@]34C)C2O1 (stereo in doubt; 3h) | 27.1 (≈ 65.8 µM) | 28 (≈ 67.8 µM) | 14.1 (≈ 34.3 µM) | 32.1 (≈ 77.9 µM) | – | – | 43 (≈ 104 µM) | – | – | –
14 | CC1=CC(=O)[C@H]2C(C)(C)CCC[C@]2(C)[C@H]1/C=C/C1=C[C@H]2O[C@H]1[C@H]1C(=O)C=CC(=O)[C@H]12 | 14.1 (≈ 34.6 µM) | 15.7 (≈ 38.7 µM) | 8.19 (≈ 20.1 µM) | 19 (≈ 46.8 µM) | – | – | 35.9 (≈ 88.3 µM) | – | – | –
15 | CC1(C)CCC[C@@]2(C)[C@H]1C(=O)CC(C)(C1(C)CC(=O)[C@H]3C(C)(C)CCC[C@]3(C)C1/C=C/c1ccoc1)[C@@H]2/C=C/c1ccoc1 (stereo partly drawn) | 13.9 (≈ 23.1 µM) | 11.2 (≈ 18.7 µM) | 6.91 (≈ 11.5 µM) | 16.8 (≈ 28.1 µM) | – | – | 23 (≈ 38.4 µM) | – | – | –
16 | CC1=CC(=O)[C@H]2C(C)(C)CCC[C@]2(C)[C@H]1/C=C/C1=C[C@H]2O[C@H]1[C@H]1C(=O)OC(=O)[C@H]12 (stereo in doubt; 3c) | – | – | – | – | 21.73 (≈ 54.8 µM) | 23.18 (≈ 58.5 µM) | – | 11.08 (≈ 27.9 µM) | 27.84 (≈ 70.2 µM) | –
17 | CC1=CC(=O)[C@H]2C(C)(C)CCC[C@]2(C)[C@H]1CCc1ccoc1 | 87 (≈ 290 µM) | > 100 | – | 60 (≈ 200 µM) | – | – | – | – | – | –
18 | CC1=CC(=O)[C@H]2C(C)(C)CCC[C@]2(C)[C@H]1/C=C/C1=C[C@H]2O[C@H]1[C@H]1C(=O)OC(=O)[C@H]12 (stereo in doubt; 3b) | 16.9 (≈ 42.7 µM) | 17 (≈ 42.9 µM) | 9.11 (≈ 23 µM) | 20 (≈ 50.5 µM) | – | – | 36.4 (≈ 91.9 µM) | – | – | –
19 | COC1CCC2C3OC(C=C3/C=C/[C@H]3C(C)=CC(=O)[C@H]4C(C)(C)CCC[C@]34C)C2O1 (stereo in doubt; 3j) | – | – | – | – | – | – | – | 14.03 (≈ 34 µM) | – | –
20 | CC1=CC(=O)[C@H]2C(C)(C)CCC[C@]2(C)[C@H]1/C=C/C1=C[C@H]2O[C@H]1[C@@H]1C(=O)OC(=O)[C@@H]12 | 17 (≈ 42.9 µM) | 18.6 (≈ 46.9 µM) | 10.4 (≈ 26.3 µM) | 20.4 (≈ 51.4 µM) | – | – | 39.9 (≈ 101 µM) | – | – | –
21 | CC1=CC(=O)[C@H]2C(C)(C)CCC[C@]2(C)[C@H]1/C=C/C1=CC2OC1C1CNCC21 (stereo in doubt; 3o) | 39.9 (≈ 108 µM) | 36.7 (≈ 99.9 µM) | 19.2 (≈ 52.2 µM) | – | – | – | – | – | – | –
22 | CC1=CC(=O)[C@H]2C(C)(C)CCC[C@]2(C)[C@H]1/C=C/C1=C[C@@H]2O[C@@H]1[C@H]1C(=O)OC(=O)[C@H]12 | 28.1 (≈ 70.9 µM) | 24.1 (≈ 60.8 µM) | 12.1 (≈ 30.6 µM) | 30.4 (≈ 76.7 µM) | – | – | – | – | – | –
23 | CC1=CC(=O)[C@H]2C(C)(C)CCC[C@]2(C)[C@H]1/C=C/C1=CC2OC1C1OCCC21 (stereo partly drawn) | 38.4 (≈ 104 µM) | 30.1 (≈ 81.8 µM) | – | – | – | – | 48.4 (≈ 131 µM) | – | – | –

Source: ChEMBL document CHEMBL1156159, “Synthesis, cytotoxic activity and structure-activity relationships of hedychenone analogues” (Bioorg Med Chem Lett, 2010)
